Experimental data: patent US20190225643A1, “NOVEL NUCLEOSIDE ANALOGS AND USE THEREOF IN THERAPEUTIC TREATMENT” (CORNELL UNIVERSITY, priority 2016, published 2019)

What was measured:
[1] = test system: colon (RKO, HCT116, DID1) and pancreatic (PA-TU-8988T) cancer cell lines; assay: Viability of adenocarcinoma cell lines; type: cell-based
Description: Cell viability assays were performed by plating log-phase cells in RPMI complete media with 20% FBS at 1*10^5 cells/mL, with concentrations of 6-ETI or phospho-6-ETI ranging from 0.1 nM to 100 μM. ATP content at 24, 48 and 72 hours post-treatment was measured by the CellTiter-Glo kit (Promega, Madison, Wis.), or by Trypan blue assay as indicated. The LC50 for 6-ETI in each cell line was determined using online EC50 software at changbioscience.com or using GraphPad Prism to determine the LC50 for 6-ETI, phospho-6-ETI and nucleoside analogs in MM cell lines and primary MM patient samples.

BC3 cells = assay: Annexin V/7-AAD cell death flow cytometry; type: cell-based, human; settings: 500 nM or 5 μM, 48 hours; versus IBL1
Description: BC3 and IBL1 cells in the exponential phase were seeded at a cell density of 0.2 million cells/ml. Cells were treated with 0.1% DMSO or with 6-ETI at a final concentration of 500 nM or 5 μM for 24, 48 or 72 hrs. Post-treatment, cells were harvested and stained with 2.54 of Alexa Fluor 647 Annexin V conjugate (Life technologies) and 2.5 fit of 7-AAD (BD biosciences) and incubated for 15 minutes in the dark at room temperature. Subsequently, 2004 of Annexin V binding buffer (BD Biosciences) was added to the cell suspension and cells analyzed by flow cytometry using BD biosciences LSRII machine.

[2] = test system: 6-ETI-resistant BC3 clones and xenograft cell lines 2-3 low and 3-5 low; assay: Viability assay in 6-ETI-resistant BC3-derived cell lines; type: cell-based
Description: To generate 6-ETI resistant clones, BC3 cells were plated in RPMI-1640 with 50 μg/mL Gentamicin and 20% FBS under 6-ETI selection in multiple 96-well plates at 1*10^5 cells/mL. Selection was begun at 15 nM, 30 nM, or 60 nM 6-ETI. Cells were split every three days, with the dose of 6-ETI doubled at least 1×/week. Selection continued until a few clonal populations remained, after which the clones were expanded into fresh plates under selection with 10 μM 6-ETI. Clones retrieved were designated NSCE-1, NSCE-2, NSCE-3, NSCE-4, NSCE-5, NSCE-6, NSCE-7, NSCE-8, in chronological order of selection from the original plates.
The ascites from these mice were harvested ex vivo, and following Ficoll extraction, placed in culture in RPMI-1640 with 10% FBS.

[3] = test system: normal plasma cells (CD19-, CD138+) from human tonsils; assay: Toxicity on normal primary tonsillar lymphocytes; type: cell-based; settings: 1 μM and 10 μM, 24 hours
Description: Primary human tonsil specimens were obtained from the Weill Cornell/New York Presbyterian Institutional Biobank. Lymphocytes were isolated from human tonsil tissue by dissection and maceration in RPMI media. Lymphocyte-containing media was passed through a 70 μm filter and pelleted at 400 g for 7 minutes. RBC were lysed for 5 minutes in RBC lysing solution (0.15M ammonium chloride, 10 mM potassium bicarbonate, […]). After dilution to 50 ml with RPMI, lymphocytes were filtered through a […] filter, counted and pelleted a second time. Total B cells were isolated using magnetic cell sorting according to manufacturer instructions (Miltenyi Cat#130-091-151). Cells were plated at 2 million cells/ml in RPMI with 20% FBS and 100 μg/ml Primocin (Invivogen) and laid over gamma-irradiated CDW32 feeder cells. Cells were then treated with DMSO, 1 μM or 10 μM 6-ETI for 24 hrs. […] Data was acquired on a BD LSR2 Flow Cytometer and analyzed using FlowJo software. The frequency of plasma cells was assessed based on singlet-gated cells expressing CD138.

[4] = test system: KSHV latent proteins LANA, vFLIP and vCyclin; assay: Western blot of KSHV latent proteins; type: cell-based
Description: For all intracellular signaling studies, cell lines were plated at 2*10^5 cells/mL or at indicated densities in RPMI-1640 with 20% FBS, and treated with the stated concentrations of 6-ETI, from 6 to 48 hours. Immunoblotting was performed using the following antibodies: PARP (BD Pharmingen, 556494), LC3B (Cell Signaling, 2775S), phospho-l-listone H2AX.X S139 (Cell Signaling, 2577S), GAPDH (Gene Tex, GTX100118), ADK (Santa Cruz, sc-365470) vFLIP 6/14 antibody was a gift from Mary Collins at University College of London, vCyclin (Abcam, ab12208), LANA (Advanced Biotechnologies, 13-210-100), β-Actin (Sigma A5316), p65 (Cell Signaling C22B4, p50 (Cell Signaling 3035), October-1 (Cell Signaling 4428), p-IκBα (Santa Cruz 3-9 sc-8404), IκBα (Santa Cruz C-21 sc-371), pIKKα/β (ser 176)(Santa Cruz sc-21661), IKKα (Santa Cruz H-744 sc-7218).

SMILES: CCSc1ncnc2c1ncn2[C@@H]1O[C@H](CO)C(O)[C@@H]1O (stereo partly drawn) [Compound 6-ETI, 6-ethylthioinosine]
- LC50 [1]: nanomolar range
- proportion of dead cells (Annexin V/7-AAD) (BC3 cells): higher proportion of dead cells
- CC50 ([2]; Homo sapiens, xenograft cell lines 2-3 low and 3-5 low after selection with 10 μM 6-ETI, read-out: LC50 (the source's name)): > 100 µM
- resistance of selected clones ([2]; clones NSCE-1, -2, -3, -6, -7, -8): fully resistant
- total number or proportion of normal plasma cells [3]: did not find a decrease in the total number or proportion of plasma cells
- latent viral protein expression [4]: no reduction was seen in latent viral protein expression
